Experimental data published in patent US5648386A (priority 1990, dated 1997).
“Also recorded” adds a separate entry of the source.

Columns and labels:
[1] = test system: β-receptors of the skeletal musculature; experiment: β-mimetic effect on skeletal musculature (BOWMAN and NOTT): tension of incompletely tetanically contracting M. soleus of anaesthetized cats i.v.; format: in vivo; conditions: for Reduction in tension in % (x): anaesthetized cats, M. soleus, n=5
Description: (§1) 1. […] They were also compared for their acute toxicity.
The β-mimetic effect on the skeletal musculature was tested using the method of BOWMAN and NOTT (Pharmacol. Rev. 21, 27 (1969)). This investigates the influence on the tension of the incompletely tetanically contracting M. soleus of anaesthetized cats after i.v. administration.

[2] = test system: lambs; experiment: performance enhancing effect in lambs (feed, 6 weeks); format: in vivo, Suffolk×Galway wether lambs; conditions: for Weight of carcass / Final weight / Composition of carcass tissue (without bones): Protein / Feed utilization in g of weight gain per kg of feed / Composition of carcass tissue (without bones): Fat / Weight gain in g per day / Composition of carcass tissue (without bones): Water: 2 mg/kg in feed, 6 weeks; for Starting weight: baseline, control 34.4
Text: 2. […] At the same time steps were taken to ensure that the lambs were offered at least 10% excess feed during the experimental period. The lambs were then killed and the following parameters were obtained: […]

[3] = test system: animals; conditions: U.S. Pat. No. 4,407,819; cited from earlier work
[4] = test system: fat cells; experiment: β-mimetic effect on fat cells: lipolytic effect (free fatty acids in blood) in conscious rabbits i.v.; format: in vivo; conditions: for ED150 (dose which resulted in a 50% increase in the free fatty acid in the blood): conscious rabbits, linear regression, range in parentheses
Text: as §1
The β-mimetic effect on the fat cells was investigated in terms of a lipolytic effect on conscious rabbits after i.v. administration.

[5] = test system: mice; experiment: acute toxicity in male and female mice i.v.; format: in vivo
Description: as §1
(§2) The acute toxicity was measured in male and female mice weighing between 20 and 25 g after intravenous administration. An LD50 was calculated by […] from the percentage of animals which died within 14 days of being given the substance.

[6] = acute toxicity in male and female mice i.v.; format: in vivo; conditions: mouse, in vivo, iv, male and female mice, death within 14 days, range in parentheses
Description: as §1, §2

[7] = overall comparison of the enantiomers (biological effects, use to risk); format: in vivo; conditions: (-)- vs (+)-cimaterol, words

Compound | Reduction in tension in % (x) ([1]; dose 0.5 μg/kg) [%] | Starting weight [2] [kg] | ED150 (dose which resulted in a 50% increase in the free fatty acid in the blood) [4] | Weight of carcass ([2]; control 22.8, 2 mg/kg) [kg] | Final weight ([2]; control 45.4, 2 mg/kg) [kg] | Composition of carcass tissue (without bones): Protein ([2]; control 140, 2 mg/kg) [g per kg] | Feed utilization in g of weight gain per kg of feed ([2]; control 190, 2 mg/kg) | Composition of carcass tissue (without bones): Fat ([2]; control 248, 2 mg/kg) [g per kg] | Weight gain in g per day ([2]; control 259, 2 mg/kg) [g per day] | Composition of carcass tissue (without bones): Water ([2]; control 501, 2 mg/kg) [g per kg] | further results
CC(C)NCC(O)c1ccc(N)c(C#N)c1 (racemic) [Cimaterol, 1-(4'-amino-3'-cyano-phenyl)-2-isopropylaminoethanol, reference compound] | 38.3 | 34.9 |  |  |  |  |  |  |  |  | Weight of carcass ([2]; control 22.8): 24.0 kg; Final weight ([2]; control 45.4): 46.0 kg; Composition of carcass tissue (without bones): Protein ([2]; control 140): 167 g per kg; Feed utilization in g of weight gain per kg of feed ([2]; control 190): 196 g of weight gain per kg of fee; Composition of carcass tissue (without bones): Fat ([2]; control 248): 265 g per kg; Weight gain in g per day ([2]; control 259): 275 g per day; Composition of carcass tissue (without bones): Water ([2]; control 501): 556 g per kg; performance-enhancing effect [3]: performance-enhancing effect
CC(C)NCC(O)c1ccc(N)c(C#N)c1 (single isomer, unassigned; (+)) [(+)-Cimaterol, (+)-1-(4'-Amino-3'-cyano-phenyl)-2-isopropylamino-ethanol] |  | 34.8 | 9.770 (7.440-12.700) μg/kg | 22.5 | 45.7 | 151 | 184 g of weight gain per kg of fee | 341 | 268 | 501 | Reduction in tension in % (x) ([1]; dose 50.0 μg/kg): 33.7%; doses needed to achieve a 50% increase in the free fatty acids, times greater than those of the corresponding L-enantiomer ([4]; D- vs L-enantiomer, rabbits): about 100 times; LD50 ([5]; male and female mice, death within 14 days, range in parentheses, 20160 min): 86.3 (80.6-92.3) mg/kg; toxicity of the D-enantiomer compared with the L-enantiomer ([5]; mice, words): the same toxicity as the L-enantiomer
CC(C)NCC(O)c1ccc(N)c(C#N)c1 (single isomer, unassigned; (-)) [(-)-Cimaterol, (-)-1-(4'-Amino-3'-cyano-phenyl)-2-isopropylamino-ethanol] | 42.1 | 34.2 | 0.098 (0.078-0.118) μg/kg | 24.1 | 48.0 | 177 | 220 g of weight gain per kg of fee | 252 | 324 | 557 | times more effective than the corresponding D-enantiomer on the β-receptors of the skeletal musculature ([1]; L- vs D-enantiomer, cats): more than 100 times; LD50 at 336 h [6]: 74.8 mg/kg; carrier of the biological / desired effects of cimaterol [7]: the only carrier of the biological effects of cimaterol; also recorded: the sole carrier of the desired effects
